Reference: ChEMBL document CHEMBL1201862, “PubChem BioAssay data set” (2004)
Activity calls are given as the source filed them.

Tests used:
[1] = biological target: Voltage-dependent T-type calcium channel subunit alpha-1H (Homo sapiens, UniProt O95180); type: functional;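 also: channel activity triggered by adding a high calcium stimulation buffer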
Phospholipase A2 = Phospholipase A2 (Homo sapiens, UniProt P04054); type: functional;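 also: confirmatory dose-response counterscreen on phospholipase A2, testing hits that came from an ultra-high-throughput screen for ATG4B inhibitors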
Sequence of Phospholipase A2 (P04054 whole entry): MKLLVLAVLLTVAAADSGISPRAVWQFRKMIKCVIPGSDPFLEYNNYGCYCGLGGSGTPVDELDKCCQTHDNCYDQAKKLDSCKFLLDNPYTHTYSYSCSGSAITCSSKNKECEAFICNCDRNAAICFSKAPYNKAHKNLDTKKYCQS

Cysteine protease ATG4B = biological target: T1, Cysteine protease ATG4B (Homo sapiens, UniProt Q9Y4P1); type: functional;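 also: Fluorescence-based dose-response confirmation assay measuring inhibition of ATG4B activity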
T1 sequence (Q9Y4P1 whole entry): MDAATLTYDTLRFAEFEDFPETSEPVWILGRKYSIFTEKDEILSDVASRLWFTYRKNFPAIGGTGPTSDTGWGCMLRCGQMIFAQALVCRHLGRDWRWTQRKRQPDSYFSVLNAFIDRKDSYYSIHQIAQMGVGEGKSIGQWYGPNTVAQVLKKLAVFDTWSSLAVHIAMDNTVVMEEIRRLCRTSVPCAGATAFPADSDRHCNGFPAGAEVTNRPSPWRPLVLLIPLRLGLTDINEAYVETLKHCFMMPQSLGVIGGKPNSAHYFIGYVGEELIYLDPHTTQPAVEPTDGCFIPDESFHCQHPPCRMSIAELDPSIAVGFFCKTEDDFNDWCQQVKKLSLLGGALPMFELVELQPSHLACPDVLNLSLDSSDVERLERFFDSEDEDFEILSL

Cytochrome P450 2D6 = Cytochrome P450 2D6 (Homo sapiens, UniProt P10635);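 also: CYP2D6 member of a cytochrome P450 panel assay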
Sequence of Cytochrome P450 2D6 (P10635 whole entry): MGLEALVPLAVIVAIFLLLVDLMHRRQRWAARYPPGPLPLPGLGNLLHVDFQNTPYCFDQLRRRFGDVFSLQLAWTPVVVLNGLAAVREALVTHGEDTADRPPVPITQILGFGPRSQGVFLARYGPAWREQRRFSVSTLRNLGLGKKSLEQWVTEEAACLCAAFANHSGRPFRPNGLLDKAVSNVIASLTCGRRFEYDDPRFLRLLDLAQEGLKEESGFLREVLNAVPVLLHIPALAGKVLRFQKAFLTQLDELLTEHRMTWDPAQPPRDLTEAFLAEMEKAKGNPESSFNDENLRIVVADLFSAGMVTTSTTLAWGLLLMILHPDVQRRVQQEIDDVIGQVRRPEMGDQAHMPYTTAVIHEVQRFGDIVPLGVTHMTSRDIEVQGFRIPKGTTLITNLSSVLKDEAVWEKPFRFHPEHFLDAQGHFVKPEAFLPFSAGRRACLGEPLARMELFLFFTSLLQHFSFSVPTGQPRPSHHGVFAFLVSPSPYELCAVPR

[2] = biological target: T2, Dual specificity protein phosphatase 6 (Rattus norvegicus, UniProt Q64346)
T2 sequence (Q64346 whole entry): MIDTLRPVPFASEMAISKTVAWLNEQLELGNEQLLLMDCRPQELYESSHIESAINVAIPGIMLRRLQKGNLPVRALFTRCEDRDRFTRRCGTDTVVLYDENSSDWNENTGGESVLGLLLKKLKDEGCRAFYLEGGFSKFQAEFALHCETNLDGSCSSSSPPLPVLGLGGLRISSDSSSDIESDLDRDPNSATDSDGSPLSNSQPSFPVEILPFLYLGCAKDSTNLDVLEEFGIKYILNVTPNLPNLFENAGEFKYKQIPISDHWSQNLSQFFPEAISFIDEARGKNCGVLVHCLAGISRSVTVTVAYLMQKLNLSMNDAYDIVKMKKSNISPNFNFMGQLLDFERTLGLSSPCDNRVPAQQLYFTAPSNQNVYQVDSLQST

[3] = biological target: Glyceraldehyde-3-phosphate dehydrogenase (Homo sapiens, UniProt P04406)
Sequence of Glyceraldehyde-3-phosphate dehydrogenase (P04406 whole entry): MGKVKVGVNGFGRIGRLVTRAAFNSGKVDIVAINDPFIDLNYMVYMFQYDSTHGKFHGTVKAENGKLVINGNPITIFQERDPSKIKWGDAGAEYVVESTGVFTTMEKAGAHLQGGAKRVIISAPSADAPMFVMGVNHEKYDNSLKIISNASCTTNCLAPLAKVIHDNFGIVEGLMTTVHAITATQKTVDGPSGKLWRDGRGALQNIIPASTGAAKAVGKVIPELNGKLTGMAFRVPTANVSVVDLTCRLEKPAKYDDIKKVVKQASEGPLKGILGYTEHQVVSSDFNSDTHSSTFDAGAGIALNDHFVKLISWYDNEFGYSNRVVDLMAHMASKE

[4] = biological target: Heat shock cognate 71 kDa protein (Homo sapiens, UniProt P11142); experiment: In Vitro Hsc70 Dose Response Fluorescence Polarization Assay. [Related pubchem assays: 1072 ]
Sequence of Heat shock cognate 71 kDa protein (P11142 whole entry): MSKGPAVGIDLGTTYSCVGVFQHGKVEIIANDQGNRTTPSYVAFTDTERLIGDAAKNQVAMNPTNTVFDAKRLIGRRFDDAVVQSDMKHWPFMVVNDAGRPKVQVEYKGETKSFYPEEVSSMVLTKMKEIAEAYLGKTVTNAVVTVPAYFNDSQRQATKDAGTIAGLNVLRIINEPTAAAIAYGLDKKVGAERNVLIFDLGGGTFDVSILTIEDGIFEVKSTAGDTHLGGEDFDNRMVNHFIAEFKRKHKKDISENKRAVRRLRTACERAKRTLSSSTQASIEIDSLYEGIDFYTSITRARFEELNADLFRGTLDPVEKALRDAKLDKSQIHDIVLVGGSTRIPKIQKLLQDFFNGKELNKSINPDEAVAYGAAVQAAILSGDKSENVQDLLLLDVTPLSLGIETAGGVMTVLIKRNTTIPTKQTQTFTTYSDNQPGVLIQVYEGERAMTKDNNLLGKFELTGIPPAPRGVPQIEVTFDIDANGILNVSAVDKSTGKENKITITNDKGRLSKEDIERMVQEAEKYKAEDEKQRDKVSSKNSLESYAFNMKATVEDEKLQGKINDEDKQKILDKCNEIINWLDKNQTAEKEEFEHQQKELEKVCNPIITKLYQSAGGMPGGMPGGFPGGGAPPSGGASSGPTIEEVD

[5] = biological target: T3, Tyrosine-protein phosphatase non-receptor type 7 (Homo sapiens, UniProt P35236); type: functional
T3 sequence (P35236 whole entry): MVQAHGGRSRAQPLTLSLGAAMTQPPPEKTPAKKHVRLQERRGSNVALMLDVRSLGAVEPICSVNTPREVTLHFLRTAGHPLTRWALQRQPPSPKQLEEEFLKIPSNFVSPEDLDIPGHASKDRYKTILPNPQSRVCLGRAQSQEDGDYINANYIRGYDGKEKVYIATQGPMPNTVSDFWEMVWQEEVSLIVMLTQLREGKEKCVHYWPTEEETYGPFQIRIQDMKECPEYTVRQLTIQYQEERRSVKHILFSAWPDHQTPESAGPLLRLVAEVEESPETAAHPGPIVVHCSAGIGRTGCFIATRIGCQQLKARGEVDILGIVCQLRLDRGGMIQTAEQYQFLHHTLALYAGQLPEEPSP

[6] = biological target: T2, Dual specificity protein phosphatase 6; type: functional
[7] = biological target: Heat shock 70 kDa protein 1A (Homo sapiens, UniProt P0DMV8); experiment: inhibition of Hsp70 binding activity – biochemical, fluorescence polarization, SAR follow-up (AID 1072)
Sequence of Heat shock 70 kDa protein 1A (P0DMV8 whole entry): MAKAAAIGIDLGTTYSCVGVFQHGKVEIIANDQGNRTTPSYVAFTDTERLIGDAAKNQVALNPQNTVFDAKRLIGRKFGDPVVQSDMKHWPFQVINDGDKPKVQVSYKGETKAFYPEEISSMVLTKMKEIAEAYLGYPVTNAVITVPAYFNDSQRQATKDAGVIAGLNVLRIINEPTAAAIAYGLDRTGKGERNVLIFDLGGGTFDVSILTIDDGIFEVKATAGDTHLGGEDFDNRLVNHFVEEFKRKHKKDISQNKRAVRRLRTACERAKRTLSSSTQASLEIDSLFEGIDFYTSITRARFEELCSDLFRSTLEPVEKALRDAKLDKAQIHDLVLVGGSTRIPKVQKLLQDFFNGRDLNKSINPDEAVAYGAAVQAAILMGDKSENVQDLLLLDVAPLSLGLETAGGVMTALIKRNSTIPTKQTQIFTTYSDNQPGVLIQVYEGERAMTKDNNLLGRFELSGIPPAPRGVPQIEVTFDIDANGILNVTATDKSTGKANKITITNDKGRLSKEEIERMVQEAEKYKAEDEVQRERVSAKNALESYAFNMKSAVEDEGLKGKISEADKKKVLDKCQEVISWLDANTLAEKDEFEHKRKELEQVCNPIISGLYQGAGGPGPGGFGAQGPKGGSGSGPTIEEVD

Tumor necrosis factor = Tumor necrosis factor (Homo sapiens, UniProt P01375); experiment: analog potency on TNFa NF-kB signaling – cell-based, revised, SAR follow-up (AID 2337); type: functional
Sequence of Tumor necrosis factor (P01375 whole entry, the tested form may be a part): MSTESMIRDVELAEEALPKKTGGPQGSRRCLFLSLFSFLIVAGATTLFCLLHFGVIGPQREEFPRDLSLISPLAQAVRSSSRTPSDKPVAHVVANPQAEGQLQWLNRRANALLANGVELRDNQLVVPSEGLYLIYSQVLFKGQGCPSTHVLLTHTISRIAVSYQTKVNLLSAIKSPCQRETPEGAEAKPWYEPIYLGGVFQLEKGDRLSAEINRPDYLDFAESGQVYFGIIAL

[8] = biological target: Nucleotide-binding oligomerization domain-containing protein 2 (Homo sapiens, UniProt Q9HC29); experiment: PubChem AID 2334; type: functional
Sequence of Nucleotide-binding oligomerization domain-containing protein 2 (Q9HC29 whole entry, the tested form may be a part): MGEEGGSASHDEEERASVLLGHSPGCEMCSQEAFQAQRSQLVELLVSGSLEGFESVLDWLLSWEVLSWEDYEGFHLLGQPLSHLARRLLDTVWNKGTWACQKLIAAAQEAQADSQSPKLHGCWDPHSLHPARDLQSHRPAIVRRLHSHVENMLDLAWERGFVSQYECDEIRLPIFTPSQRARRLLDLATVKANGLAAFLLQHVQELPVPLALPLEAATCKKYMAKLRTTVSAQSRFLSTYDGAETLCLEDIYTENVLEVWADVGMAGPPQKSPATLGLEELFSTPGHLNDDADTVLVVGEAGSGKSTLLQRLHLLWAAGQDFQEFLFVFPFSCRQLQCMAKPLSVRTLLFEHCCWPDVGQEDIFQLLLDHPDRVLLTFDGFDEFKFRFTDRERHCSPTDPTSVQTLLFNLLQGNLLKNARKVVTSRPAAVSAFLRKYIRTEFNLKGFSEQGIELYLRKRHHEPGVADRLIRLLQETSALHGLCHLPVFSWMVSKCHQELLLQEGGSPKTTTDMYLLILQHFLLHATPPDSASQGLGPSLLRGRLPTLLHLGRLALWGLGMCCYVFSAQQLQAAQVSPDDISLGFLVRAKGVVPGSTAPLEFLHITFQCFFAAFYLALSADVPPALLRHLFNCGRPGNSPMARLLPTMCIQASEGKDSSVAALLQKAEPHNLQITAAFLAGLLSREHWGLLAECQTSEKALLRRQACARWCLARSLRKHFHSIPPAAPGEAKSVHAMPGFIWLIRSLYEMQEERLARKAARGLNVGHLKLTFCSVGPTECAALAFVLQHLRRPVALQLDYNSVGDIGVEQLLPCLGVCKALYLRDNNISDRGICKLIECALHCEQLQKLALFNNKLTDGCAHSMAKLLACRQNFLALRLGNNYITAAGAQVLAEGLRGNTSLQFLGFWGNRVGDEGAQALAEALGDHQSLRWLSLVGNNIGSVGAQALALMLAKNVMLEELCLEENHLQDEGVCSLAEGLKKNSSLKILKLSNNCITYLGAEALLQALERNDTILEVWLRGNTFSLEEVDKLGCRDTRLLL

HEK293 = experiment: cells; conditions: Homo sapiens;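 also: cells exposed to compound for 14 hours overnight before viability readout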
[9] = biological target: T4, Nucleotide-binding oligomerization domain-containing protein 1 (Homo sapiens, UniProt Q9Y239); experiment: blockers of NOD1 pathway activity – revised, SAR follow-up (AID 2333); type: functional
T4 sequence (Q9Y239 whole entry): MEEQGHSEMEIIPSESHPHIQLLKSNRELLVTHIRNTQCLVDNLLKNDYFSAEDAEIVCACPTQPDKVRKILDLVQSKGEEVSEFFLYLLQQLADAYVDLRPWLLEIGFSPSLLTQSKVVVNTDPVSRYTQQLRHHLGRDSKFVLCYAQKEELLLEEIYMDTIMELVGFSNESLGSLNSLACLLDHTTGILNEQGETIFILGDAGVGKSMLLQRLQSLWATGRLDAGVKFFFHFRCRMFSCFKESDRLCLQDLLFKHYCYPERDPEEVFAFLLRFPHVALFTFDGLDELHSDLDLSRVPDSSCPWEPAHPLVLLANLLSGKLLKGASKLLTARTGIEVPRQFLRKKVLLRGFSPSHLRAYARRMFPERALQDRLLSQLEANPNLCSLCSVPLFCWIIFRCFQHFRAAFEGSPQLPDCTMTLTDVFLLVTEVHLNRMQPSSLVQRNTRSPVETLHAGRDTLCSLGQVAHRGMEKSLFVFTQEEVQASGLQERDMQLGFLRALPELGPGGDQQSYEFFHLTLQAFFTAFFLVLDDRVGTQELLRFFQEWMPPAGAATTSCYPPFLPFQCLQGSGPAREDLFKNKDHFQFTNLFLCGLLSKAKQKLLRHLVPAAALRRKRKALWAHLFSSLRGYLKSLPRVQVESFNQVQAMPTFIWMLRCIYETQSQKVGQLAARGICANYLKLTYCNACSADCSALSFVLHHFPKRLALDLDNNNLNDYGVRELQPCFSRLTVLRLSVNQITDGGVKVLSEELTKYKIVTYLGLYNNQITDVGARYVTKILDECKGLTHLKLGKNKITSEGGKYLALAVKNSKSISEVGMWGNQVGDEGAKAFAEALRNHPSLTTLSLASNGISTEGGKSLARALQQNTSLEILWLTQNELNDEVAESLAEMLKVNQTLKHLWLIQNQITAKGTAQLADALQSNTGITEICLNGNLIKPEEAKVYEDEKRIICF

cells = type: functional
[10] = THP-1 cell cytotoxicity, dose response, cytotoxicity control for non-replicating M. tuberculosis project (AID 489025); type: functional
[11] = Vero E6 cell cytotoxicity, dose response, cytotoxicity control for non-replicating M. tuberculosis project, secondary assay (AID 492998); type: functional, VeroE6; conditions: Vero C1008
Escherichia coli = experiment: microbe, parasite or virus in culture
[12] = biological target: FAD-linked sulfhydryl oxidase ALR (Homo sapiens, UniProt P55789); experiment: ALR-catalysed DTT oxidation blockers – biochemical, H2O2 detection, luminescence, cherry-pick, dose response (AID 493248)
Sequence of FAD-linked sulfhydryl oxidase ALR (P55789 whole entry, the tested form may be a part): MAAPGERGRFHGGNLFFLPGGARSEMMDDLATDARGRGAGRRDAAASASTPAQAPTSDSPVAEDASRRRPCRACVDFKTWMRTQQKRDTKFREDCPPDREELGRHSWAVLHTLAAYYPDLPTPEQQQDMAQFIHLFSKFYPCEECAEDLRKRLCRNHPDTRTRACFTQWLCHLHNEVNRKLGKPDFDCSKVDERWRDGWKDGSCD

[13] = biological target: T5, Carboxy-terminal domain RNA polymerase II polypeptide A small phosphatase 1 (Homo sapiens, UniProt Q9GZU7); experiment: CTDSP1 inhibitors, concentration-response, biochemical, absorbance readout, ultra-high-throughput screen actives (AID 540297); type: functional
T5 sequence (Q9GZU7 whole entry): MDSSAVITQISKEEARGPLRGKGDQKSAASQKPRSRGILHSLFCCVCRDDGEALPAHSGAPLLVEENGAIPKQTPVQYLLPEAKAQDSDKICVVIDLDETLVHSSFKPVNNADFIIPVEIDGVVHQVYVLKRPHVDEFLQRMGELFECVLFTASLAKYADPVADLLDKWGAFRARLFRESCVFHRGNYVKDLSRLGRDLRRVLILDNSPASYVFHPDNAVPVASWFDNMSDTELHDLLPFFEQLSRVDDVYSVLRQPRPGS

[14] = biological target: T2, Dual specificity protein phosphatase 6; experiment: inhibition of rat DUSP6 enzyme activity – biochemical, in vitro, primary screen (AID 425)
[15] = biological target: Dual specificity tyrosine-phosphorylation-regulated kinase 1A (Rattus norvegicus, UniProt Q63470); type: biochemical, Homo sapiens
Prothrombin = Prothrombin (Bos taurus, UniProt P00735); experiment: thrombin protease inhibitors – biochemical, fluorescence polarization, uHTS hits, dose response (AID 602369); type: functional
[16] = tested on: Streptococcus sp. 'group A'; experiment: Streptococcus pyogenes SK(-)GAS viability under kanamycin – luminescence, BacTiterGlo, confirmation, counter-screen for streptokinase expression inhibitor project, dose response (AID 1900); type: functional, organism-based
[17] = biological target: 26S proteasome non-ATPase regulatory subunit 14 (Homo sapiens, UniProt O00487); experiment: inhibition of proteasome subunit RPN11 – biochemical, fluorescence polarization, uHTS hits, confirmation (AID 602368); type: functional
Sequence of 26S proteasome non-ATPase regulatory subunit 14 (O00487 whole entry): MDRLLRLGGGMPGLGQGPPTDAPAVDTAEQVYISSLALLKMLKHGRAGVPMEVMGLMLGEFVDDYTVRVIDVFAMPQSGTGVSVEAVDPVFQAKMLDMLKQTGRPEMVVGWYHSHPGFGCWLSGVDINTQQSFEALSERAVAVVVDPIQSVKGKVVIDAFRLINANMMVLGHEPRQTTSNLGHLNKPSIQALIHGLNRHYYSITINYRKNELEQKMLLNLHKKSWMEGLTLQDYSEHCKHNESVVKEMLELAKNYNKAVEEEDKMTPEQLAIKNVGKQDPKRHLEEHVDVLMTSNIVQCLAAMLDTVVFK

Streptococcus = experiment: GAS UMAA2166 growth inhibition – luminescence, BacTiterGlo, counter-screen for streptokinase expression inhibitor project, dose response (AID 1915); type: functional, organism-based;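 also: potency for reduction of bacterial viability or growth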
[18] = biological target: 72 kDa type IV collagenase (Homo sapiens, UniProt P08253); experiment: Dose Response validation of uHTS RPN11 inhibitor hits using a MMP-2 Fluorescence assay.; type: functional
Sequence of 72 kDa type IV collagenase (P08253 whole entry): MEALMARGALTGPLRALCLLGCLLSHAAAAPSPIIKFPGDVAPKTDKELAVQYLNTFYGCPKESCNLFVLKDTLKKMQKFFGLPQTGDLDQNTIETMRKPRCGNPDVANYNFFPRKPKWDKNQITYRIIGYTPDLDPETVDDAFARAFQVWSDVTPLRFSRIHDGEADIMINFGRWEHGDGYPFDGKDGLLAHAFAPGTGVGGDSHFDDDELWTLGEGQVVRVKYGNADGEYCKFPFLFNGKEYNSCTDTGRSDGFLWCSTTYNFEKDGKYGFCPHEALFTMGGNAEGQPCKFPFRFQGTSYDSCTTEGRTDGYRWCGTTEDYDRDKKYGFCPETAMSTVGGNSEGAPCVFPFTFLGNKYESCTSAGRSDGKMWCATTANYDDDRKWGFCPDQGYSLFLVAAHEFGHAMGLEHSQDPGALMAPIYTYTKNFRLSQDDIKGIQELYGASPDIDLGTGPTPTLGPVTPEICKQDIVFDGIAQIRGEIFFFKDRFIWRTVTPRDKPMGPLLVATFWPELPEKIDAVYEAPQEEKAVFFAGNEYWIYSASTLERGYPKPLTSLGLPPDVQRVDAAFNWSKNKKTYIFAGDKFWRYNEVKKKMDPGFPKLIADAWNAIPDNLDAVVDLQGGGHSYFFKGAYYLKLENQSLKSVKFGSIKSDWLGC

What does the source list for `Cc1ccccc1NC(=O)/C(=C/c1ccccc1)c1ccccc1`?
EC50 [1]: 9.09 µM (active); IC50 (Phospholipase A2): 9.58 µM (active); IC50 (Cysteine protease ATG4B): 10.8 µM (active); AC50 (Cytochrome P450 2D6): 14.1 µM (inconclusive)

With `O=C(Oc1ccc(-c2ccccc2)cc1)c1cccc2c1NC(C(=O)O)C1CC=CC21` (configuration not stated) as the molecule, how does the IC50 [2] read?
The IC50 was 3.4 µM (active).

What about the IC50 [3] of the same molecule?
Its IC50 is > 100 µM (not active).

And the IC50 [4]?
Its IC50 is > 100 µM (not active).

And the IC50 [5]?
The IC50 was 5.62 µM (active).

And the IC50 [6]?
Its IC50 is 3.5 µM (active).

What about the IC50 [7] of the same molecule?
The IC50 was > 100 µM (not active).

Which results are given for `O=C(Cc1ccccc1)Nc1nc2ccccc2n1Cc1ccc(Cl)cc1`?
IC50 (Tumor necrosis factor): > 20 µM (inactive); IC50 [8]: > 20 µM (inactive); IC50 (HEK293): > 20 µM (inactive); IC50 [9]: > 20 µM (inactive)

What does the source list for `Cc1cc(NCc2ccc(F)cc2Cl)n2nnnc2n1`?
IC50 (Phospholipase A2): 12.1 µM (active); IC50 (Cysteine protease ATG4B): 15.7 µM (active)

What does the source list for `CCC(=O)Nc1nc2ccccc2n1Cc1ccccc1`?
IC50 (cells): 6.75 µM (active); IC50 (Tumor necrosis factor): > 20 µM (inactive); CC50 [10]: > 40 µM (active); IC50 [8]: > 20 µM (inactive); IC50 (HEK293): > 20 µM (inactive); IC50 [9]: > 20 µM (inactive); CC50 [11]: > 20 µM (active)

Which AC50 (Escherichia coli) does the source give for `O=C(c1cc(O)c(O)c([N+](=O)[O-])c1)c1ccccc1F` here?
The AC50 was 95 µM (active).

What about the AC50 [12] of the same molecule?
The AC50 was 3.2 µM (active).

Which IC50 [2] does the source give for `CCOC(=O)C1Nc2c(O)cc(C)cc2C2C=CCC12` (configuration not stated) here?
The IC50 was > 100 µM (inactive).

What about the IC50 [3] of the same molecule?
The IC50 was > 100 µM (not active).

And the IC50 [5]?
The IC50 was > 100 µM (not active).

And the IC50 [6]?
The IC50 was > 100 µM (inactive).

For `O=C(CSc1nnc2scc(-c3ccccc3)n12)Nc1nsc(-c2ccccc2)n1`, which IC50 [2] is on record?
Its IC50 is 6.9 µM (active).

What about the IC50 [3] of the same molecule?
Its IC50 is 27.4 µM (active).

And the IC50 [13]?
Its IC50 is 6.59 µM (active).

And the IC50 [14]?
Its IC50 is 11 µM (active).

What about the IC50 [4] of the same molecule?
The IC50 was > 100 µM (not active).

What about the IC50 [5] of the same molecule?
The IC50 was 12.8 µM (active).

And the IC50 [6]?
The IC50 was 9.41 µM (active).

What about the IC50 [7] of the same molecule?
Its IC50 is > 100 µM (not active).

With `COc1ccccc1C1CCN(c2cc(O)ccc2[N+](=O)[O-])CC1` as the molecule, how does the AC50 [15] read?
Its AC50 is 4.38 µM (active).

Which AC50 (Escherichia coli) does the source give for `Cc1cc(C)nc(SC(C)C(=O)N/N=C/c2cccs2)n1` (configuration not stated) here?
Its AC50 is 22.1 µM (active).

Which results are given for `Oc1nc(Nc2ccc(Cl)cc2Cl)sc1/C=C1\C=Nc2ccccc21`?
IC50 (Phospholipase A2): 1.5 µM (active); IC50 (Cysteine protease ATG4B): 2.64 µM (active); IC50 (Prothrombin): 38.3 µM (active); EC50 [16]: 1.27 µM (active); IC50 [17]: 36.5 µM (active); EC50 (Streptococcus): 2.61 µM (active); IC50 [18]: > 100 µM (inactive)

With `CN(c1ccccc1)S(=O)(=O)c1cccc(NC(=O)CN2C(=O)NC3(CCCC3)C2=O)c1` as the molecule, how does the AC50 (Escherichia coli) read?
The AC50 was 40.1 µM (active).
